target: purified human recombinant CETP (Homo sapiens (Human), UniProt P11597); assay: CETP Scintillation Proximity Assay; format: biochemical; settings: CETP-dependent cholesterol ester transfer from 3H-CE/HDL to biotinylated LDL, 37° C.; read-out: CETP SPA IC50
Experimental: CETP Scintillation Proximity Assay
Dilutions of compounds in DMSO (1 μl) are added to BD plates (#353232). To this is added 20 μl of a mixture containing ^3H-CE/HDL (0.15 μl), biotinylated LDL (˜5 μg protein/ml final concentration) and unlabeled HDL (16 μg/ml final concentration) in a buffer containing 50 mM HEPES, pH 7.4, 150 mM NaCl and 0.05% sodium azide. Reactions are initiated by the addition of 10 μl of buffer containing purified human recombinant CETP, and incubated at 37° C. At the end of the reaction, 60 μl of LEADseeker beads (#RPNQ0261, 2 mg/ml in buffer containing 1 mg/ml BSA and 0.05 mg protein/ml HDL) are added, the plates are covered and subsequently read. Background activity is determined in a set of wells that receive buffer but no CETP. The level of inhibition is determined by comparing the readings in wells that contain compound to the readings in control wells containing DMSO.

purified human recombinant CETP, sequence (P11597 18-493): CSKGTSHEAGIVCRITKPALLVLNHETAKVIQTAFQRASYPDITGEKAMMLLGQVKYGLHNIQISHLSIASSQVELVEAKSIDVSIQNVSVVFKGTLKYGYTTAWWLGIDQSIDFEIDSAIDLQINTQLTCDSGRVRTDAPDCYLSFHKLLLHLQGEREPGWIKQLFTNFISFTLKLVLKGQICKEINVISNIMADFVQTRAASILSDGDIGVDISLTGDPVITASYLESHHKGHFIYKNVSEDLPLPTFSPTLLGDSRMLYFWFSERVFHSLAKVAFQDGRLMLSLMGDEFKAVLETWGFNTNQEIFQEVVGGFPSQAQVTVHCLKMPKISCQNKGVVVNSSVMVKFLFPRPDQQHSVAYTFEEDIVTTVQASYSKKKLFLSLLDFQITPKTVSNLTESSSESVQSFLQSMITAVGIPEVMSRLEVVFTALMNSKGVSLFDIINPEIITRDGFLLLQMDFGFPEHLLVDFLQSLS

Compound	IC50 [µM]
O=C(NCC(Cc1ccccc1)(c1cccc(OC(F)(F)F)c1)c1cccc(OC(F)(F)F)c1)C1CC1(F)F (stereo not drawn) [Example 11, 2,2-difluoro-N-(3-phenyl-2,2-bis(3-(trifluoromethoxy)phenyl)propyl)cyclopropanecarboxamide]	1.43
O[C@@H](CN(C[C@H](O)C(F)(F)F)CC(Cc1ccccc1)(c1cccc(OC(F)(F)F)c1)c1cccc(OC(F)(F)F)c1)C(F)(F)F [Example 45, (2S,2′S)-3,3′-(3-phenyl-2,2-bis(3-(trifluoromethoxy)phenyl)propylazanediyl)bis(1,1,1-trifluoropropan-2-ol)]	2.81
O[C@H](CNC[C@@](Cc1ccccc1)(c1cc(F)cc(OC(F)(F)C(F)F)c1)c1ccc(Cl)cn1)C(F)(F)F (stereo in doubt) [Example 2, (R)-3-OR)-2-(5-chloropyridin-2-yl)-2-(3-fluoro-5-(1,1,2,2-tetrafluoroethoxy)phenyl)-3-phenylpropylamino)-1,1,1-trifluoropropan-2-ol]	0.009
FC(F)(F)CCNCC(Cc1ccccc1)(c1cccc(OC(F)(F)F)c1)c1cccc(OC(F)(F)F)c1 [Example 53, 3,3,3-trifluoro-N-(3-phenyl-2,2-bis(3-(trifluoromethoxy)phenyl)propyl)propan-1-amine]	0.025
O=S(=O)(CC(F)(F)F)NCC(Cc1ccccc1)(c1cccc(OC(F)(F)F)c1)c1cccc(OC(F)(F)F)c1 [Example 122, 2,2,2-trifluoro-N-(3-phenyl-2,2-bis(3-(trifluoromethoxy)phenyl)-propyl)ethanesulfonamide]	0.129
FC(F)(F)Oc1cccc(C(CNc2ncc(N3CCOCC3)cn2)(Cc2ccccc2)c2cccc(OC(F)(F)F)c2)c1 [Example 112, 5-morpholino-N-(3-phenyl-2,2-bis(3-(trifluoromethoxy)phenyl)propyl)pyrimidin-2-amine]	0.248
Cc1cc(CC(CNC[C@H](O)C(F)(F)F)(c2cccc(OC(F)(F)F)c2)c2cccc(OC(F)(F)F)c2)no1 [Example 43, (S)-1,1,1-trifluoro-3-(3-(5-methylisoxazol-3-yl)-2,2-bis(3-(trifluoromethoxy)phenyl)propylamino)propan-2-ol]	0.134
O[C@H](CNCC(Cc1ccccn1)(c1cccc(OC(F)(F)F)c1)c1cccc(OC(F)(F)F)c1)C(F)(F)F [Example 44, (R)-1,1,1-trifluoro-3-(3-(pyridin-2-yl)-2,2-bis(3-(trifluoromethoxy)phenyl)propylamino)propan-2-ol]	0.019
O[C@H](CNC[C@@](Cc1ccccc1)(c1cc(F)cc(C(F)(F)F)c1)c1ccc(F)cn1)C(F)(F)F [Example 6, (R)-1,1,1-trifluoro-3-((R)-2-(3-fluoro-5-(trifluoromethyl)phenyl)-2-(5-fluoropyridin-2-yl)-3-phenylpropylamino)propan-2-ol]	0.03
O=C(NCC(F)(F)F)NCC(Cc1ccccc1)(c1cccc(OC(F)(F)F)c1)c1cccc(OC(F)(F)F)c1 [Example 27, 1-(3-phenyl-2,2-bis(3-(trifluoromethoxy)phenyl)propyl)-3-(2,2,2-trifluoroethyl)urea]	0.132
O[C@H](CNCC(Cc1ccccc1)(c1cccc(OC(F)(F)F)c1)c1cccc(OC(F)(F)F)c1)C(F)(F)F [Example 47, (R)-1,1,1-trifluoro-3-(3-phenyl-2,2-bis(3-(trifluoromethoxy)phenyl)propylamino)propan-2-ol]	0.014
Oc1c(F)cccc1CNCC(Cc1ccccc1)(c1cccc(OC(F)(F)F)c1)c1cccc(OC(F)(F)F)c1 [Example 94, 2-fluoro-6-((3-phenyl-2,2-bis(3-(trifluoromethoxy)phenyl)propylamino)methyl)phenol]	0.184
isopropyl 3-phenyl-2,2-bis(3- (trifluoromethoxy)phenyl)- propylcarbamate [Example 133]	1.09
Cc1ccc(CC(CNC[C@@H](O)C(F)(F)F)(c2cccc(OC(F)(F)F)c2)c2cccc(OC(F)(F)F)c2)cc1 [Example 50, (R)-1,1,1-trifluoro-3-(3-p-tolyl-2,2-bis(3-(trifluoromethoxy)phenyl)propylamino)propan-2-ol]	0.009
O=C(NC[C@@](Cc1ccccc1)(c1cc(F)cc(C(F)(F)F)c1)c1ccc(F)cn1)[C@@](O)(c1ccccc1)C(F)(F)F [Example 5, (S)-3,3,3-trifluoro-N—((R)-2-(3-fluoro-5-(trifluoromethyl)phenyl)-2-(5-fluoropyridin-2-yl)-3-phenylpropyl)-2-hydroxy-2-phenylpropanamide]	4.36
